The results in this text go back to ChEMBL document CHEMBL1201862, “PubChem BioAssay data set” (2004).

Among the test systems are 786-0; CAKI-1; CCRF-CEM; COLO 205; HCT-15; IGROV-1; LOX IMVI; NCI-H522; OVCAR-5; OVCAR-8; RPMI-8226; SF-539; SK-MEL-5; SN12C; SNB-19; TK-10; UACC-62.
Assay in all cases: NCI anticancer screen, dose series, 48 h

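Results reflect a 48-hour exposure of cells in 96-well plates to compound at five concentrations. GI50 = concentration required for 50% inhibition of growth.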 Activity calls are given as the source filed them. No stated cut-off is given here; in the data, active = GI50 up to about 1.1 µM and inactive = higher.

Take `O=c1[nH]c2cc(-c3ccccc3)nc-2nn1-c1c(Cl)cc(Cl)cc1Cl`: the GI50 in the assay on 786-0 is 30.8 µM (inactive); in the assay on CAKI-1, 27.5 µM (inactive); in the assay with CCRF-CEM, 28.6 µM (inactive); in the assay on COLO 205, 15.1 µM (inactive); in the assay with HCT-15, 36 µM; in the assay with IGROV-1, 38.5 µM (inactive). Moreover, the GI50 is 24.3 µM (inactive) with LOX IMVI; 28.8 µM (inactive) in the assay on NCI-H522; 39.4 µM (inactive) in the assay on OVCAR-5; 37.4 µM (inactive) in the assay on OVCAR-8; 24.3 µM (inactive) in the assay with RPMI-8226; 19.4 µM (inactive) with SF-539. Also, the GI50 was 25.9 µM (inactive) with SK-MEL-5; 28.6 µM (inactive) in the assay with SN12C; 33.1 µM (inactive) in the assay on SNB-19; 28.6 µM (inactive) with TK-10; 17.5 µM (inactive) with UACC-62.

Take `COCCCNC(=O)C1C(=O)C(=O)N(CCCOC)C1=O` (stereo unspecified): the GI50 was > 100 µM (inactive) in the assay on 786-0; > 100 µM (inactive) with CAKI-1; > 100 µM (inactive) with CCRF-CEM; > 100 µM (inactive) in the assay on COLO 205; greater than 100 µM in the assay on HCT-15; > 100 µM (inactive) in the assay on IGROV-1. Moreover, the GI50 in the assay on LOX IMVI, in the assay with NCI-H522, with OVCAR-5, in the assay on OVCAR-8, with RPMI-8226 and in the assay with SF-539 was > 100 µM (inactive) throughout. Also, the GI50 in the assay on SK-MEL-5, with SN12C, in the assay with SNB-19, with TK-10 and with UACC-62 was > 100 µM (inactive) throughout.

Take `C=CCNC(=O)N(CCCC(NC(C)=O)C(=O)NCc1ccccc1)Cc1ccccc1` (stereo unspecified): the GI50 was > 100 µM (inactive) in the assay with 786-0; > 100 µM (inactive) with CAKI-1; > 100 µM (inactive) in the assay with CCRF-CEM; > 100 µM (inactive) in the assay with COLO 205; greater than 100 µM with HCT-15; > 100 µM (inactive) in the assay on IGROV-1. The GI50 with LOX IMVI, in the assay on NCI-H522, in the assay with OVCAR-5, with OVCAR-8, with RPMI-8226 and with SF-539 was > 100 µM (inactive) each time. The GI50 in the assay with SK-MEL-5, in the assay with SN12C, in the assay on SNB-19, with TK-10 and in the assay on UACC-62 was > 100 µM (inactive) in each case.

`CC(=O)NC(CCCCN(Cc1ccccc1)C(=O)N(C)N=O)C(=O)NCc1ccccc1` (stereo unspecified): the GI50 in the assay on 786-0 was > 100 µM (inactive); in the assay with CAKI-1, > 100 µM (inactive); with CCRF-CEM, 59.6 µM (inactive); in the assay with COLO 205 it was 88.3 µM (inactive); in the assay on HCT-15, greater than 100 µM; with IGROV-1 it was > 100 µM (inactive). Further, the GI50 with LOX IMVI was > 100 µM (inactive); in the assay on NCI-H522 it was 16.8 µM (inactive); in the assay on OVCAR-5, > 100 µM (inactive); with OVCAR-8, > 100 µM (inactive); in the assay with RPMI-8226, 40.6 µM (inactive); in the assay on SF-539, > 100 µM (inactive). The GI50 in the assay on SK-MEL-5 is 47.1 µM (inactive); in the assay on SN12C, > 100 µM (inactive); with SNB-19 it was > 100 µM (inactive); in the assay on TK-10 it was > 100 µM (inactive); in the assay on UACC-62 it was > 100 µM (inactive).

With `N#CC(/C(=N/NC(=O)C(=O)NN)C(=O)NC12CC3CC(CC(C3)C1)C2)c1ccccc1` (stereo unspecified), the GI50 in the assay with 786-0 is > 100 µM (inactive); with CAKI-1, > 100 µM (inactive); in the assay with CCRF-CEM, > 100 µM (inactive); in the assay with COLO 205, > 100 µM (inactive); in the assay with HCT-15, greater than 100 µM; in the assay with IGROV-1, > 100 µM (inactive). In addition, the GI50 in the assay on LOX IMVI, in the assay on NCI-H522, in the assay with OVCAR-5, with OVCAR-8, in the assay on RPMI-8226 and in the assay with SF-539 was > 100 µM (inactive) in each case. The GI50 with SK-MEL-5, in the assay on SN12C, in the assay with SNB-19, with TK-10 and with UACC-62 was > 100 µM (inactive) throughout.

For the molecule `C[C@]12Cc3cn[nH]c3C(=O)C1CC[C@@H]1C2CC[C@@]2(C)C1CC[C@]2(C)O` (stereo partly specified), the GI50 in the assay with 786-0 was 89.5 µM (inactive); with CAKI-1, > 100 µM (inactive); in the assay on CCRF-CEM it was > 100 µM (inactive); in the assay with COLO 205, > 100 µM (inactive); in the assay with HCT-15, greater than 100 µM; with IGROV-1 it was > 100 µM (inactive). Besides, the GI50 is > 100 µM (inactive) in the assay on LOX IMVI; > 100 µM (inactive) in the assay with NCI-H522; > 100 µM (inactive) in the assay with OVCAR-5; > 100 µM (inactive) in the assay with OVCAR-8; > 100 µM (inactive) in the assay on RPMI-8226; 84.5 µM (inactive) in the assay on SF-539. Also, the GI50 in the assay on SK-MEL-5, in the assay on SN12C, in the assay on SNB-19, in the assay with TK-10 and in the assay on UACC-62 was > 100 µM (inactive) each time.

In the case of `O=C(Cc1nc2ccccc2o1)C(=O)Nc1cccc(C(F)(F)F)c1`, the GI50 is > 100 µM (inactive) with 786-0; > 100 µM (inactive) in the assay on CAKI-1; > 100 µM (inactive) with CCRF-CEM; > 100 µM (inactive) with COLO 205; greater than 100 µM in the assay with HCT-15; > 100 µM (inactive) in the assay on IGROV-1. Moreover, the GI50 in the assay with LOX IMVI, in the assay with NCI-H522, with OVCAR-5, in the assay with OVCAR-8, in the assay on RPMI-8226 and with SF-539 was > 100 µM (inactive) in each case. Further, the GI50 in the assay with SK-MEL-5, in the assay with SN12C, in the assay with SNB-19, with TK-10 and in the assay on UACC-62 was > 100 µM (inactive) in each case.

With `CC[C@@H](C(=O)[C@@H](C)[C@@H](O)[C@H](C)CCc1ccc(C)c(O)c1C(=O)O)[C@H]1O[C@](CC)([C@H]2CC[C@](O)(CC)[C@H](C)O2)C[C@@H]1C` [LASALOCID A SODIUM], the GI50 in the assay with 786-0 is 2.9 µM (inactive); in the assay on CAKI-1 it was 1.84 µM (inactive); in the assay with CCRF-CEM it was 0.695 µM (active); in the assay with COLO 205 it was 1.1 µM (active); in the assay on HCT-15 it was 3.19 µM; with IGROV-1, 2.88 µM (inactive). Besides, the GI50 in the assay on LOX IMVI was 2.77 µM (inactive); with NCI-H522, 1.01 µM (active); in the assay with OVCAR-5 it was 6.47 µM (inactive); with OVCAR-8, 2.3 µM (inactive); in the assay on RPMI-8226, 1.2 µM (inactive); in the assay with SF-539 it was 1.15 µM (inactive). In addition, the GI50 in the assay on SK-MEL-5 was 1.66 µM (inactive); with SN12C, 1.91 µM (inactive); with SNB-19 it was 1.3 µM (inactive); in the assay with TK-10 it was 2.79 µM (inactive); in the assay with UACC-62 it was 1.81 µM (inactive).
